Laboratory results as given in PubChem BioAssay AID2060903 (Molecular Pharmacology Branch, DTP, NCI, 2025).
pIC50: −log10 of the molar value.

System: 377384-186-R-J1-PDC complex spheroid viability
Experiment: Anticancer human tumor 377384-186-R-J1-PDC patient-derived pancreatic carcinoma cell line growth inhibition [RAS]
Details: for pIC50: curve of first compound; for viability, T/C: stronger effect = lower value
Text: RAS pathway inhibitors in Combinations in Complex Spheroids
A high-throughput screen of multi-cell type tumor spheroids was designed to identify active combinations of RAS pathway inhibitors and targeted small molecules. Complex spheroids include a stromal component modeled by human endothelial cells (HUVEC) and fibroblasts modeled by human mesenchymal stem cells (MSCs). The concentration ranges selected for each drug and investigational agent were based upon clinically achievable concentrations if the clinical Cmax of the agent was known.
Compounds. The drugs and investigational agents: abemaciclib (NSC768073), cobimetinib (NSC768068), divarasib (GDC6063, NSC841802), docetaxel (NSC628503), GDC-1971 (RLY-1971, NSC841576), gemcitabine (NSC613327), inavolisib (NSC800729), ipatasertib (NSC767898), KB-0742 (NSC834161), MRTX-1133 (NSC836407), osimertinib (NSC779217), RMC-4630 (NSC839698), RMC-6236 (NSC851965), RMC-6291 (NSC852671), Ro-3306 (NSC812927), sapanisertib (NSC764658), SN-38 (NSC673596), staurosporine (NSC755774), SY5609 (NSC837396), and tovorafenib (DAY101, NSC766906), were obtained from the National Cancer Institute (NCI) Developmental Therapeutics Program Chemical Repository. The FDA-approved anticancer drug set is available from the NCI Developmental Therapeutics Program. […] The stock solutions were prepared in dimethyl sulfoxide (DMSO, Sigma-Aldrich, St. Louis, MO, cat. D2650) at 800-fold the tested concentration and stored at -70 degrees C prior to their use. All drugs and investigational agents were tested over a range starting from a high concentration at or near the clinical Cmax and decreasing in half-log increments. If the clinical Cmax for an agent had not been determined, the highest concentration tested was 10 microM.
Cell Culture. All cells were maintained in an incubator at 37 degrees C and 5% CO2 with 95% humidity. The PDC lines were cultured according to standard operating procedures established by the NCI PDMR. All PDCs were thawed and cultured in Matrigel-coated flasks prepared with a working solution of 1X Ham's F-12 nutrient mix, without supplementation (Invitrogen, Waltham, MA, cat. 11765054), 100 U/mL penicillin-streptomycin (Invitrogen, cat. 15140122), and 2.5% Matrigel (Corning Inc., Corning, NY, cat. 354248) for the first three passages. The 362531-283-R-J2-PDC and 782815-120-R-J1-PDC lines were cultured in 6C/Colon 1B media, which includes advanced DMEM/F-12 (Thermo Fisher Scientific, cat. 12634028), 10 mM HEPES (Thermo Fisher Scientific, cat. 15630080), 1X GlutaMAX supplement (Thermo Fisher Scientific, cat. 35050061), 0.1 mg/mL primocin (InvivoGen, San Diego, CA, cat. ant-pm-2), 10% defined fetal bovine serum, heat inactivated (HyClone Laboratories Inc., Logan, UT, cat. SH30070.03HI), 50% L-WRN conditioned media (ATCC, cat. CRL-3276), 1.25 mM N-Acetyl-L-cysteine (Sigma-Aldrich, cat. A9165), 10 mM nicotinamide (Sigma-Aldrich, cat. N0636), 1X B-27 supplement (Thermo Fisher Scientific, cat. 17504044), 1X N-2 supplement (Thermo Fisher Scientific, cat. 17502048), 50 ng/mL human EGF (Thermo Fisher Scientific, cat. PHG0311), and 10 microM Y-27632 dihydrochloride (Tocris Bioscience, cat. 1254). The K12877-001-R-J1-PDC line was cultured in 6I media, which includes all 6C/Colon 1B media plus 10 ng/mL human FGF-10 (PeproTech, cat. 100-26), 1 ng/mL human FGF-2 (PeproTech, cat. 100-18B), 1 µM prostaglandin E2 (Tocris Bioscience, cat. 2296), […] hydrocortisone (Sigma-Aldrich, cat. H4001), and […] bovine insulin (Sigma-Aldrich, cat. I6634). The K86415-001-R-J1-PDC line was cultured in 6D media, which includes all 6C/Colon 1B media components minus the L-WRN conditioned media. The 485176-168-R4-J1-PDC was cultured in PANC media, which includes all 6C/Colon 1B media plus 100 ng/mL human FGF-10 (PeproTech, cat. 100-26), 500 nM SB-431542 (Selleckchem, cat. S1067), and 10 nM gastrin (Tocris Bioscience, cat. 3006). […]
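Note: spheroids exposed to compounds for seven days before readout.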

Nc1ccn(C2OC(CO)C(O)C2(F)F)c(=O)n1 (configuration not stated) + C=CC(=O)N1CCN(c2nc(OCC3CCCN3C)nc3c(F)c(-c4nc(N)cc(C)c4C(F)(F)F)c(Cl)cc23)C(C)C1 gave a pIC50 (second compound 0.00316 µM) of 8.17, a pIC50 (second compound 0.01 µM) of 8.15 and a pIC50 (second compound 0.0316 µM) of 8.18. The pIC50 (second compound 0.1 µM) was 8.26, the pIC50 (second compound 0.316 µM) was 8.14 and the pIC50 (second compound 1 µM) was 8.21. The viability, T/C (second compound 0.00316 µM, first compound 0.00316 µM) was 76.9%, the viability, T/C (second compound 0.00316 µM, first compound 0.01 µM) was 35.9% and the viability, T/C (second compound 0.00316 µM, first compound 0.0316 µM) was 11.5%. The viability, T/C (second compound 0.00316 µM, first compound 0.1 µM) was 4.72%, the viability, T/C (second compound 0.00316 µM, first compound 0.316 µM) was 3.54% and the viability, T/C (second compound 0.00316 µM, first compound 1 µM) was 2.18%. It also gave a viability, T/C (second compound 0.01 µM, first compound 0.00316 µM) of 81.7%, a viability, T/C (second compound 0.01 µM, first compound 0.01 µM) of 36.5% and a viability, T/C (second compound 0.01 µM, first compound 0.0316 µM) of 13.4%. The viability, T/C (second compound 0.01 µM, first compound 0.1 µM) was 4.91%, the viability, T/C (second compound 0.01 µM, first compound 0.316 µM) was 3.97% and the viability, T/C (second compound 0.01 µM, first compound 1 µM) was 3.71%. For the same compound, the viability, T/C (second compound 0.0316 µM, first compound 0.00316 µM) was 74%, the viability, T/C (second compound 0.0316 µM, first compound 0.01 µM) was 36.3% and the viability, T/C (second compound 0.0316 µM, first compound 0.0316 µM) was 9.49%. For the same compound, the viability, T/C (second compound 0.0316 µM, first compound 0.1 µM) was 4.74%, the viability, T/C (second compound 0.0316 µM, first compound 0.316 µM) was 3.22% and the viability, T/C (second compound 0.0316 µM, first compound 1 µM) was 2.97%. For the same compound, the viability, T/C (second compound 0.1 µM, first compound 0.00316 µM) was 60.4%, the viability, T/C (second compound 0.1 µM, first compound 0.01 µM) was 38.9% and the viability, T/C (second compound 0.1 µM, first compound 0.0316 µM) was 12%. For the same compound, the viability, T/C (second compound 0.1 µM, first compound 0.1 µM) was 3.63%, the viability, T/C (second compound 0.1 µM, first compound 0.316 µM) was 3.27% and the viability, T/C (second compound 0.1 µM, first compound 1 µM) was 2.81%. It also gave a viability, T/C (second compound 0.316 µM, first compound 0.00316 µM) of 80.5%, a viability, T/C (second compound 0.316 µM, first compound 0.01 µM) of 38.5% and a viability, T/C (second compound 0.316 µM, first compound 0.0316 µM) of 13.1%. It also gave a viability, T/C (second compound 0.316 µM, first compound 0.1 µM) of 4.24%, a viability, T/C (second compound 0.316 µM, first compound 0.316 µM) of 3.5% and a viability, T/C (second compound 0.316 µM, first compound 1 µM) of 3.38%. The viability, T/C (second compound 1 µM, first compound 0.00316 µM) was 65.3%, the viability, T/C (second compound 1 µM, first compound 0.01 µM) was 38.8% and the viability, T/C (second compound 1 µM, first compound 0.0316 µM) was 16.7%. It also gave a viability, T/C (second compound 1 µM, first compound 0.1 µM) of 5.53%, a viability, T/C (second compound 1 µM, first compound 0.316 µM) of 4.43% and a viability, T/C (second compound 1 µM, first compound 1 µM) of 4.1%.
